Patent publication US4416888A, “3-(2-(4-Piperidyl)-1-alkyl-ethyl)-indoles and their use as medicaments” (Pharmindustrie, priority 1981, dated 1983)
Read-outs that look alike come from different tables or passages of the source.

Key:
[1] = system: serotonin uptake by human blood platelets; assay: Inhibition of serotonin uptake in human blood platelets; format: cell-based; conditions: Platelet, read-out: Inhibition of serotonin uptake I50
From the text: It is known that serotonin uptake by the blood platelets is a good model for the uptake of this amine by the neurons (cf. J. Tuomisto, J. Pharm., Pharmac., 26, 92 (1974). When applied to the study of medicaments, any method involving the use of blood platelets is of great interest because it allows the use of human cells, so that its estimation character is good.
"Platelets Function and Thrombosis, a Review of Methods" p. 335 (Plenum Press, London, 1972).
1. Inhibition of Serotonin Uptake
The results are expressed by inhibitory dose 50% or I50 which represents the dose of the product in micromoles per liter which reduce the rate of serotonin uptake by 50%.

[2] = system: serotonin release, human blood platelets; assay: Serotonin release from human blood platelets; format: cell-based; conditions: for activation at 50 µM: Platelet, product concentration 5 × 10^-5 moles per liter, increase relative to controls, human blood platelets, read-out: Percent of increased serotonin release
Description: "Platelets Function and Thrombosis, a Review of Methods" p.
The action of the products on serotonin release is tested at a concentration of 5×10^-5 moles per liter.

[3] = system: male mice CD1 (Charles RIVER); assay: Acute toxicity in male mice CD1, oral administration; format: in vivo; conditions: male CD1 mouse
Description: The acute toxicity of the products has been established in male mice CD1 (Charles RIVER) by oral administration. The compounds according to the invention are relatively not very toxic substances. For example, the product of Example 1 is non-toxic in the mouse if administered at a dose of 100 mg/kg.

| SMILES | IC50 ([1]; Homo sapiens) [µM] | activation at 50 µM [2] [%] | Acute toxicity at 100 mg/kg [3] | IC50 ([1]; human blood platelets, dose reducing the rate of serotonin uptake by 50%) [µM] | Serotonin release (in words) ([2]; compared with p-chloroamphetamine) |
| --- | --- | --- | --- | --- | --- |
| CC(CC1CCNCC1)c1c[nH]c2ccccc12 (stereo not shown) [Example 1, 3-[2-(4-Piperidyl)-1-Methyl-Ethyl]-Indole] | 0.05 | 62 | non-toxic |  |  |
| c1ccc2c(CCC3CCNCC3)c[nH]c2c1 [Indalpine, 3-[2-(4-piperidyl)-ethyl]-indole] |  | 22 |  | 0.035 |  |
| CC(N)Cc1ccc(Cl)cc1 (stereo not shown) [p-chloroamphetamine] | 12 | 51 |  |  | induce serotonin release |
| CN(C)CCCN1c2ccccc2CCc2ccccc21 [Imipramine] | 0.4 | 12 |  |  |  |
